Results reported in patent US9433217B2, “Methods and compositions for introduction of exogenous dsRNA into plant cells” (Syngenta Participations AG, priority 2011, dated 2016).

Key:
Format in all cases: in vivo
[1] = tested on: maize glutamine synthetase; experiment: Silencing of maize glutamine synthetase, qPCR of leaf samples and phenotype; details: dsRNA treated maize plants, 2-3 weeks after treatment
Experimental: The Zma-GS dsRNA molecule (SEQ ID NO 7:SEQ ID NO 8) used in this embodiment is a double stranded RNA version of SEQ ID NO 2. Methods for formulation of dsRNA and control solutions, plant growth conditions, and application of RNAi formulation were as described in the above example, with the exception that another control formulation was added with only Brassinosteroid at 0.1 micromolar.
Results were evaluated from leaf samples taken 2-3 weeks after treatment. Four plants were examined from each treatment group. […] Since glutamine synthetase is a natively expressed gene, qPCR analysis was performed to calculate silencing efficiency. qPCR was performed using the Applied Biosystems 7900HT Fast Real-Time PCR System. Silencing efficiency was calculated according to the publication Analysis of Relative Gene Expression Data Using Real-Time Quantitative PCR and the 2^−ΔΔCt Method. Methods (2001) 25:402-408.

NtPDS transcript = experiment: Silencing of NtPDS transcript in tobacco, qPCR and phenotype; details: leaves of dsRNA treated tobacco plants
Experimental: The tobacco gene encoding phytoene desaturase was evaluated for silencing using dsRNA constructs in combination with BR. […] The NtPDS dsRNA molecule (SEQ ID NO 10:SEQ ID NO 11) used in this embodiment is a double stranded RNA version of SEQ ID NO 4.
Similar to Example 3, once germinated and grown for 3-4 weeks, three tobacco plants were chosen for treatment for either the dsRNA or the control formulation. Here, the control formulation contained BR and water alone. […] As in Examples 2 and 3, the silencing efficiencies were calculated and are shown in the table below, where dsPDS is dsRNA from NtPDS.

NtFtsH transcript = experiment: Silencing of NtFtsH transcript in tobacco, qPCR and phenotype; details: leaves of dsRNA treated tobacco plants
Experimental: The tobacco gene encoding Filamentation temperature-sensitive H (NtFtsH) protease was evaluated for silencing using dsRNA constructs in combination with BR. […] The NtFtsH protease dsRNA molecule (SEQ ID NO 9:SEQ ID NO 10) used in this embodiment is a double stranded version of SEQ ID NO. 3.
Once germinated, tobacco plants were transplanted to new soil and grown for an additional 3-4 weeks. Three tobacco plants were chosen for treatment for either the dsRNA or the control formulation. The treatments were applied using methods similar to those described in Example 2. Here, the control formulation contained ZsGreen dsRNA. […] As in Example 2, the silencing efficiencies were calculated and are shown in the table below, where dsNtFtsH is dsRNA from NtFtsH protease and dsZsGreen is the dsRNA of ZsGreen: […]

Q: “dsGS: Zma-GS dsRNA (SEQ ID NO 7:SEQ ID NO 8), double stranded RNA version of SEQ ID NO 2” was tested. Which phenotype [1] did it give?
A: Its phenotype is “bleaching was observed”.

Q: How did the phenotype (NtPDS transcript) turn out when “dsPDS: NtPDS dsRNA, double stranded RNA version of SEQ ID NO 4” was run?
A: The phenotype was “bleaching phenotype was observed”.

B1: dsNtFtsH: NtFtsH protease dsRNA (SEQ ID NO 9:SEQ ID NO 10), double stranded version of SEQ ID NO. 3 (nucleic acid, listed as Nicotiana tabacum)
chain 1: CAAAUGGCAGUUGCACUUGGUGAAAGGGUUGCUGAGGAGGUUAUUUUUGGACAAGAUAACGUAACAACUGGGGCAUCUAACGAUUUCAUGCAAGUUUCACGAGUGGCAAGGCAGAUGGUUGAGAGAUUAGGGUUCAGCAAAAAGAUUGGACAAGUUGCCAUUGGAGGAGGUGGAGGAAAUCCUUUCCUAGGUCAACAGAUGUCAACCCAGAAAGACUACUCCAUGGCUACAGCCGAUGUGGUUGAUGCUGAAGUAAGGGAAUUGGUUGAAAGAGCAUAUGAAAGGGCAACAGAGAUUAUCACAACACACAUUGACAUCCUACACAAGCUUGCUCAGCUGUUGAUAGAGAAAGAAACUGUUGAUGGUGAAGAGUUCAUGAGCCUUUUCAUCGAUGG
chain 2: GUUUACCGUCAACGUGAACCACUUUCCCAACGACUCCUCCAAUAAAAACCUGUUCUAUUGCAUUGUUGACCCCGUAGAUUGCUAAAGUACGUUCAAAGUGCUCACCGUUCCGUCUACCAACUCUCUAAUCCCAAGUCGUUUUUCUAACCUGUUCAACGGUAACCUCCUCCACCUCCUUUAGGAAAGGAUCCAGUUGUCUACAGUUGGGUCUUUCUGAUGAGGUACCGAUGUCGGCUACACCAACUACGACUUCAUUCCCUUAACCAACUUUCUCGUAUACUUUCCCGUUGUCUCUAAUAGUGUUGUGUGUAACUGUAGGAUGUGUUCGAACGAGUCGACAACUAUCUCUUUCUUUGACAACUACCACUUCUCAAGUACUCGGAAAAGUAGCUACC
modifications: Sense strand of SEQIDNO3 (1)..(395); Complement of SEQIDNO9 (1)..(395)
Q: For B1, which phenotype (NtFtsH transcript) is on record?
A: Its phenotype is “bleaching phenotype was observed”.
